Assay results from patent US9988400B2 (Genentech, Inc., priority 2013, dated 2018).

Target: T1, HEK cells stably transfected with tetracycline inducible hNR1 and hNR2A (Homo sapiens, UniProt Q05586+Q12879)
T1 construct: expressed in transfected cells; host or cells: HEK cells, stably transfected, tetracycline/doxycycline inducible
Assay: Assay 1: Cell-Based Assay, cytosolic calcium response to positive allosteric modulators (with 30 μM glycine and 300 nM L-glutamate, EC30)
Conditions: Table 2; for EC50: cytosolic calcium response, with 30 μM glycine and 300 nM L-glutamate (EC30), — = no plateau was reached; for Max %: responses scaled relative to 100 μM L-glutamate maximal response (100%) and 0 μM L-glutamate (0%)
Experimental: Assay 1: Cell-Based Assay
HEK cells stably transfected with tetracycline inducible hNR1 and hNR2A were seeded into clear bottom 384 well poly-D-lysine coated plates (2.5×10^4 cells per well) in Minimum Essential Media (MEM; without L-) including 7.5 μg mL^−1 doxycycline and 500 μM (+)-ketamine. The cells were incubated at 37° C. in 5% CO2 for 24 h. For measurement of changes in cytosolic calcium, the seeding media was removed and the cells incubated at 37° C. for 60 min with 1× Becton Dickinson Calcium Assay Kit reagent in Hanks Balanced Salt Solution (HBSS; w/o magnesium, including 1.8 mM calcium, 0.65 mg ml^−1 probenecid and 10 μM (+)-ketamine, pH 7.15) then allowed to equilibrate to rt for 30 min. Concentration-effect curves to Positive Allosteric Modulators (PAMs) were constructed by adding different concentrations (with 30 μM glycine and 300 nM L-glutamate (EC30)) to different wells in HBSS. Compounds were added after a 10 second baseline read and maximum level of relative fluorescence units (RFU) was measured over a 5 min period. Responses were scaled relative to 100 μM L-glutamate maximal response (100%) and 0 μM L-glutamate (0%). EC50 values are provided for compounds reaching maximal response plateaus, and the max % (EC50 (- -)) only if no plateau was reached.
A four-parameter Hill equation was fitted to individual concentration-effect curves:
[formula] in which Y, S0, Sinf, AC50, n and c were effect, lower-asymptote, upper-asymptote, mid-point location, slope parameter, and concentration respectively.

T1 sequence (Q12879 23-1464, other chains not shown): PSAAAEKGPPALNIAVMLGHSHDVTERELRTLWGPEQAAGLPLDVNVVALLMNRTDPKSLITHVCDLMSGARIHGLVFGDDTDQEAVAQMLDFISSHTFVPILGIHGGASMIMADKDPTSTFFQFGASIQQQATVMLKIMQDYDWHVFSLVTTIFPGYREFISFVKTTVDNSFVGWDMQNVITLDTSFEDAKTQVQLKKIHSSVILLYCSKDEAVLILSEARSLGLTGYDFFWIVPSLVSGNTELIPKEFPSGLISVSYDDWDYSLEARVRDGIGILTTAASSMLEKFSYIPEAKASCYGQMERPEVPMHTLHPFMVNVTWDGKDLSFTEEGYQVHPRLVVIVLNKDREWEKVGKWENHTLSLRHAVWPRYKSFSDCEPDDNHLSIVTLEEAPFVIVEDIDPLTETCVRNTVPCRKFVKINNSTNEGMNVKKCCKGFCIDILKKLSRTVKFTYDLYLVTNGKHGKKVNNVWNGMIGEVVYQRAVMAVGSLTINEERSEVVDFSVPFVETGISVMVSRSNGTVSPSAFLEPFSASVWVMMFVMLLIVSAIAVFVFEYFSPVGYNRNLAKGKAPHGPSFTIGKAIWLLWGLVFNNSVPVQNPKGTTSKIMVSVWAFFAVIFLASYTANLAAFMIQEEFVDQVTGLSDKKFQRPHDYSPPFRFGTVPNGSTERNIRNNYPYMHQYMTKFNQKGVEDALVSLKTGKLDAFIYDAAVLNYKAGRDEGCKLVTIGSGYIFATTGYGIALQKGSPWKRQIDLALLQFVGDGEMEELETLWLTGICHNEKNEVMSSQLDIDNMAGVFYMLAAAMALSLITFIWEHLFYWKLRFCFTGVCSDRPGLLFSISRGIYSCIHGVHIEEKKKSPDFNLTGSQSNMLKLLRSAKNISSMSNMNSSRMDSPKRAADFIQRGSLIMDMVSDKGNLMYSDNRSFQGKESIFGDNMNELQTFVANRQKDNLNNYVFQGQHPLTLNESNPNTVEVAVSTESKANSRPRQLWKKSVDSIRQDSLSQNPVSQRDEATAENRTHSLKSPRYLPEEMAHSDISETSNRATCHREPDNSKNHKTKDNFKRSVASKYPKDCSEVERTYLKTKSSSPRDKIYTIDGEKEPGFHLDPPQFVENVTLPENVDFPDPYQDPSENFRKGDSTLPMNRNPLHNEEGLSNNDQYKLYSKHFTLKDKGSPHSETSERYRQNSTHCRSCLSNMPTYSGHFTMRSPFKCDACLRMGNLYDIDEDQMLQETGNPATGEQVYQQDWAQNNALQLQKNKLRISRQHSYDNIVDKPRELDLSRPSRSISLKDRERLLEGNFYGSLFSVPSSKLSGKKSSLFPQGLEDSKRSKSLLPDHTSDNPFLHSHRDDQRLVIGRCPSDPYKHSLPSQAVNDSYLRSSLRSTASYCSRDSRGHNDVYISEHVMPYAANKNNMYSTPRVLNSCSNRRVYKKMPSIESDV

Cc1sc2nc(COc3ccc(F)cc3)cc(=O)n2c1C1CC1C#N (racemic) [Example 4.18, cis-2-[7-(4-Fluorophenoxymethyl)-2-methyl-5-oxo-5H-[1,3]thiazolo[3,2-a]pyrimidin-3-yl]cyclopropane-1-carbonitrile]
EC50: 5 µM | Max %: 102%

Cc1sc2nc(COc3cccc(F)c3)cc(=O)n2c1[C@@H]1C[C@H]1CO (relative stereo) [Example 4.4, 7-((3-fluorophenoxy)methyl)-3-(trans-2-(hydroxymethyl)cyclopropyl)-2-methyl-5H-thiazolo[3,2-a]pyrimidin-5-one]
EC50: 2.5 µM | Max %: 138%

Cc1sc2nc(COc3ccc(F)cc3F)cc(=O)n2c1[C@@H]1C[C@H]1CO (relative stereo) [Example 4.6, 7-(2,4-Difluorophenoxymethyl)-3-[trans-2-(hydroxymethyl)cyclopropyl]-2-methyl-5H-[1,3]thiazolo[3,2-a]pyrimidin-5-one]
EC50: 7.7 µM | Max %: 128%

Cc1sc2nc(COc3ccc(F)c(F)c3)cc(=O)n2c1[C@@H]1C[C@H]1CO (relative stereo) [Example 4.7, 7-(3,4-Difluorophenoxymethyl)-3-[trans-2-(hydroxymethyl)cyclopropyl]-2-methyl-5H-[1,3]thiazolo[3,2-a]pyrimidin-5-one]
EC50: 5.8 µM | Max %: 134%

Cc1sc2nc(COc3ccc(Cl)cc3)cc(=O)n2c1[C@@H]1C[C@H]1CO (relative stereo) [Example 4.8, 7-(4-Chlorophenoxymethyl)-3-[trans-2-(hydroxymethyl)cyclopropyl]-2-methyl-5H-[1,3]thiazolo[3,2-a]pyrimidin-5-one]
EC50: 4.4 µM | Max %: 99.3%

Cc1sc2nc(COc3ccc(F)cn3)cc(=O)n2c1[C@@H]1C[C@H]1CO (relative stereo) [Example 4.9, 7-[[(5-Fluoropyridin-2-yl)oxy]methyl]-3-[trans-2-(hydroxymethyl)cyclopropyl]-2-methyl-5H-[1,3]thiazolo[3,2-a]pyrimidin-5-one]
EC50: 4.4 µM | Max %: 123%

Cc1sc2nc(COc3ccc(C(F)(F)F)cc3)cc(=O)n2c1[C@@H]1C[C@H]1CO (relative stereo) [Example 4.10, 3-(trans-2-(hydroxymethyl)cyclopropyl)-2-methyl-7-((4-(trifluoromethyl)phenoxy)methyl)-5H-thiazolo[3,2-a] pyrimidin-5-one]
EC50: 4.3 µM | Max %: 108%

Cc1sc2nc(COc3ccccc3F)cc(=O)n2c1[C@@H]1C[C@H]1CO (relative stereo) [Example 4.12, 7-((2-fluorophenoxy)methyl)-3-(trans-2-(hydroxymethyl)cyclopropyl)-2-methyl-5H-thiazolo[3,2-a]pyrimidin-5-one]
EC50: 30.6 µM | Max %: 127%

Cc1sc2nc(COc3ccc(C#N)cc3)cc(=O)n2c1[C@@H]1C[C@H]1CO (relative stereo) [Example 4.13, 4-((3-(trans-2-(hydroxymethyl)cyclopropyl)-2-methyl-5-oxo-5H-thiazolo[3,2-a]pyrimidin-7-yl)methoxy)benzonitrile]
EC50: 31.1 µM | Max %: 72.8%

O=c1cc(COc2ccc(F)cc2)nc2scc([C@@H]3C[C@H]3CO)n12 (relative stereo) [Example 4.14, 7-((4-fluorophenoxy)methyl)-3-(trans-2-(hydroxymethyl)cyclopropyl)-5H-thiazolo[3,2-a]pyrimidin-5-one]
EC50: 7.8 µM | Max %: 93%

Cc1sc2nc(COc3ccc(F)cc3)cc(=O)n2c1[C@@H]1C[C@@H]1CO (relative stereo) [Example 4.23, 7-(4-Fluorophenoxymethyl)-3-[cis-2-(hydroxymethyl)cyclopropyl]-2-methyl-5H-[1,3]thiazolo[3,2-a]pyrimidin-5-one]
EC50: 26.5 µM | Max %: 62.9%
